# Assay results published in patent US20250222120A1, “SYNTHESIS OF NOVEL SMALL MOLECULE CARM1 DEGRADERS, COMPOUNDS FORMED THEREBY, AND PHARMACEUTICAL COMPOSITIONS CONTAINING THEM” (Wisconsin Alumni Research Foundation, priority 2024, published 2025).
# Peptide text beside a SMILES is read from it. * marks the point of attachment. Cbz = O=C(OCc1ccccc1)*
# Molecular target: T1, CARM1 (Homo sapiens, UniProt Q86X55)
# T1 sequence (Q86X55 1-608): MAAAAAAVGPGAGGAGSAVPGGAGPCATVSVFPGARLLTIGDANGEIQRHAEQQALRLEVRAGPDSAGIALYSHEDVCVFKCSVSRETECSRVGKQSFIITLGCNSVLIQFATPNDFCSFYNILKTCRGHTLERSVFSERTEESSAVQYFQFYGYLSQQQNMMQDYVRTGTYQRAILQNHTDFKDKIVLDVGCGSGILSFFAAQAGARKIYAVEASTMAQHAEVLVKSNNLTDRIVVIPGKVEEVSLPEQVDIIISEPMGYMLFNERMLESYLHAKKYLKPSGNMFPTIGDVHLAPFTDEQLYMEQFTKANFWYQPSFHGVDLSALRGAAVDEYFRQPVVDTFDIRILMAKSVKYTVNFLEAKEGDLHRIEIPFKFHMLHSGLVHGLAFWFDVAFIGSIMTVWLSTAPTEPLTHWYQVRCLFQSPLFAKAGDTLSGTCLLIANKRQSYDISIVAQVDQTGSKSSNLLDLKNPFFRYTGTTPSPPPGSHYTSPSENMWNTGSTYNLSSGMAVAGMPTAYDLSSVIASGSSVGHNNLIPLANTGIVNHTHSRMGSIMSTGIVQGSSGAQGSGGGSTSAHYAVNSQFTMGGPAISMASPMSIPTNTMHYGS
# Experiment: CARM1 degradation by western blot in MCF7 cells
# Format: cell-based
# Design: Cell lysates were collected and the CARM1 levels were detected by western blots; endogenous in cells; host or cells: MCF7
# Settings: 0.5 μM, 24 h
# Description: Based on the structure of TPVC3, CARM1 degraders with stable and flexible alkyl linkages 2a-e were designed and synthesized. Degrader 2b bears the same linker length as TPVC3, while 2a has one less carbon. However, we also changed the hydrolytic labile C═N double bond, which is part of the acylhydrazone motif, in TPVC3 to a C—C bond in compound 2b. This change may influence the required optimal linker length. […] Western blot assays were performed to evaluate the CARM1 degradation activity of the compounds after treating MCF7 cells with these degraders at two concentrations (0.5 and 1.0 μM) for 24 h. […] It has one less carbon atom than 2a in terms of length. […] It has the same linker length as 2d.
# The treatment dose and time were determined based on time-course and dose titration experiments (FIG. 4B-4C).
# Western Blot Assay. Cells were harvested and washed with Dulbecco's phosphate-buffered saline (PBS), then lysed with 1×RIPA lysis buffer (50 mM Tris pH 7.5, 150 mM NaCl, 1% NP-40, 0.5% sodium deoxycholate, and 0.1% sodium dodecyl sulfate) supplemented with 1 mM phenylmethylsulfonyl fluoride, 10 μg/mL aprotinin, 1 μM leupeptin, and 10 μg/mL pepstatin on ice for 20 min. The supernatant was collected after spinning down at 15000 RPM at 4 degrees Celsius for 10 min. The concentration of whole lysates was quantified using a Bradford assay. 50-75 μg of cell lysates was boiled in 4× Laemmli Loading Dye and boiled at 100 degrees Celsius for 10 min. 25 μg were run in 8% SDS-PAGE gels and transferred to nitrocellulose membranes. Blots were blocked in 5% skim milk in PBST [PBS and 0.1% Tween 20] for 45 min, then incubated with primary antibodies at 4 degrees Celsius overnight. Blots were washed in PBST for 30 min, then incubated with horseradish peroxidase-linked secondary antibodies (Jackson ImmunoResearch) for 1 hr. Afterwards, blots were washed in PBST for 15-30 min, then treated with chemiluminescent ECL reagent and imaged with the ChemiDoc Imaging System (Bio-Rad) or Azure 600 (Azure Biosystems). Expression levels of the indicated proteins were probed by the following antibodies: anti-CARM1, anti-me-BAF155, anti-me-PABP1, anti-PABP1,^7 anti-BAF155 (D7F8S, Cell Signaling Technology), anti-PRMT1 (Bethyl), anti-PRMT6 (D-5, Santa Cruz Biotechnology), anti-β-Actin (ABclonal Technology, Sigma-Aldrich), anti-Hsp90 (H-114, Santa Cruz Biotechnology).
row,Compound,CARM1 degradation activity
1,"CNCCN1CCC(c2cc(CN(C)C(=O)c3cccc(Oc4ccc(C(=O)N5CCC(CN6CCC(CN7CCN(CC(=O)N[C@H](C(=O)N8C[C@H](O)C[C@H]8C(=O)N[C@@H](C)c8ccc(-c9scnc9C)cc8)C(C)(C)C)CC7)CC6)CC5)cc4)c3)ccn2)CC1 [Compound 3c, (2S,4R)-1-((S)-3,3-dimethyl-2-(2-(4-((1-((1-(4-(3-(methyl((2-(1-(2-(methylamino)ethyl)piperidin-4-yl)pyridin-4-yl)methyl)carbamoyl)phenoxy)benzoyl)piperidin-4-yl)methyl)piperidin-4-yl)methyl)piperazin-1-yl)acetamido)butanoyl)-4-hydroxy-N—((S)-1-(4-(4-methylthiazol-5-yl)phenyl)ethyl)pyrrolidine-2-carboxamide]",significantly lower CARM1 degradation activities
2,"CNCCN1CCC(c2cc(CN(C)C(=O)c3cccc(Oc4ccc(CC(=O)N5CCC(CN6CCC(CN7CCN(CC(=O)N[C@H](C(=O)N8C[C@H](O)C[C@H]8C(=O)N[C@@H](C)c8ccc(-c9scnc9C)cc8)C(C)(C)C)CC7)CC6)CC5)cc4)c3)ccn2)CC1 [Compound 3d, (2S,4R)-1-((S)-3,3-dimethyl-2-(2-(4-((1-((1-(2-(4-(3-(methyl((2-(1-(2-(methylamino)ethyl)piperidin-4-yl)pyridin-4-yl)methyl)carbamoyl)phenoxy)phenyl)acetyl)piperidin-4-yl)methyl)piperidin-4-yl)methyl)piperazin-1-yl)acetamido)butanoyl)-4-hydroxy-N—((S)-1-(4-(4-methylthiazol-5-yl)phenyl)ethyl)pyrrolidine-2-carboxamide]",significantly lower CARM1 degradation activities

# Same assay, conditions: 0.5 and 1.0 μM, 24 h
row,Compound,"CARM1 degradation activity, alkyl-linker degraders"
1,"CNCCN1CCC(c2cc(CN(C)C(=O)c3cccc(Oc4ccc(OCC(=O)NCc5ccc(OCCCC(=O)N[C@H](C(=O)N6C[C@H](O)C[C@H]6C(=O)N[C@@H](C)c6ccc(-c7scnc7C)cc6)C(C)(C)C)cc5)cc4)c3)ccn2)CC1 [Compound 2a, (2S,4R)-1-((S)-3,3-dimethyl-2-(4-(4-((2-(4-(3-(methyl((2-(1-(2-(methylamino)ethyl)piperidin-4-yl)pyridin-4-yl)methyl)carbamoyl)phenoxy)phenoxy)acetamido)methyl)phenoxy)butanamido)butanoyl)-4-hydroxy-N—((S)-1-(4-(4-methylthiazol-5-yl)phenyl)ethyl)pyrrolidine-2-carboxamide]","2d and 2e showed stronger CARM1 degradation activities than 2a, 2b, and 2c"
2,"CNCCN1CCC(c2cc(CN(C)C(=O)c3cccc(Oc4ccc(OCC(=O)NCCc5ccc(OCCCC(=O)N[C@H](C(=O)N6C[C@H](O)C[C@H]6C(=O)N[C@@H](C)c6ccc(-c7scnc7C)cc6)C(C)(C)C)cc5)cc4)c3)ccn2)CC1 [Compound 2b, (2S,4R)-1-((S)-3,3-dimethyl-2-(4-(4-(2-(2-(4-(3-(methyl((2-(1-(2-(methylamino)ethyl)piperidin-4-yl)pyridin-4-yl)methyl)carbamoyl)phenoxy)phenoxy)acetamido)ethyl)phenoxy)butanamido)butanoyl)-4-hydroxy-N—((S)-1-(4-(4-methylthiazol-5-yl)phenyl)ethyl)pyrrolidine-2-carboxamide]","2d and 2e showed stronger CARM1 degradation activities than 2a, 2b, and 2c"
3,"CNCCN1CCC(c2cc(CN(C)C(=O)c3cccc(Oc4ccc(OCC(=O)NCCc5ccc(OCCCCC(=O)N[C@H](C(=O)N6C[C@H](O)C[C@H]6C(=O)N[C@@H](C)c6ccc(-c7scnc7C)cc6)C(C)(C)C)cc5)cc4)c3)ccn2)CC1 [Compound 2c, (2S,4R)-1-((S)-3,3-dimethyl-2-(5-(4-(2-(2-(4-(3-(methyl((2-(1-(2-(methylamino)ethyl)piperidin-4-yl)pyridin-4-yl)methyl)carbamoyl)phenoxy)phenoxy)acetamido)ethyl)phenoxy)pentanamido)butanoyl)-4-hydroxy-N—((S)-1-(4-(4-methylthiazol-5-yl)phenyl)ethyl)pyrrolidine-2-carboxamide]","2d and 2e showed stronger CARM1 degradation activities than 2a, 2b, and 2c"
4,"CNCCN1CCC(c2cc(CN(C)C(=O)c3cccc(Oc4ccc(OCC(=O)NCCc5ccc(OCCCCCC(=O)N[C@H](C(=O)N6C[C@H](O)C[C@H]6C(=O)N[C@@H](C)c6ccc(-c7scnc7C)cc6)C(C)(C)C)cc5)cc4)c3)ccn2)CC1 [Compound 2d, (2S,4R)-1-((S)-3,3-dimethyl-2-(6-(4-(2-(2-(4-(3-(methyl((2-(1-(2-(methylamino)ethyl)piperidin-4-yl)pyridin-4-yl)methyl)carbamoyl)phenoxy)phenoxy)acetamido)ethyl)phenoxy)hexanamido)butanoyl)-4-hydroxy-N—((S)-1-(4-(4-methylthiazol-5-yl)phenyl)ethyl)pyrrolidine-2-carboxamide]",stronger CARM1 degradation activities
5,"CNCCN1CCC(c2cc(CN(C)C(=O)c3cccc(Oc4ccc(OCC(=O)NCCc5ccc(OCCCCCCC(=O)N[C@H](C(=O)N6C[C@H](O)C[C@H]6C(=O)N[C@@H](C)c6ccc(-c7scnc7C)cc6)C(C)(C)C)cc5)cc4)c3)ccn2)CC1 [Compound 2e, (2S,4R)-1-((S)-3,3-dimethyl-2-(7-(4-(2-(2-(4-(3-(methyl((2-(1-(2-(methylamino)ethyl)piperidin-4-yl)pyridin-4-yl)methyl)carbamoyl)phenoxy)phenoxy)acetamido)ethyl)phenoxy)heptanamido)butanoyl)-4-hydroxy-N—((S)-1-(4-(4-methylthiazol-5-yl)phenyl)ethyl)pyrrolidine-2-carboxamide]",stronger CARM1 degradation activities

# Molecular target: T1, CARM1
# Experiment: CARM1 degradation by western blot in MCF7 cells
# Format: cell-based
# Design: Cell lysates were collected and the CARM1 levels were detected by western blots; endogenous in cells; host or cells: MCF7
# Settings: MCF7 cells, 0.5 μM 3b, 24 h; 7.5 μM MG132, 20 μM VH-032, 2 μM MLN4924, 10 μM TP-064
row,Compound,Effect of competitor/inhibitor on 3b-induced CARM1 degradation
1,"CC(C)C[C@@H](C=O)NC(=O)[C@H](CC(C)C)NC(=O)[C@H](CC(C)C)NC(=O)OCc1ccccc1 [MG132, reference compound] (Cbz-Leu-Leu-Leu-aldehyde)",abrogated 3b-induced CARM1 degradation
2,"NS(=O)(=O)OC[C@@H]1C[C@@H](n2ccc3c(N[C@H]4CCc5ccccc54)ncnc32)C[C@@H]1O [MLN492437, reference compound]",abrogated 3b-induced CARM1 degradation
3,"CC(=O)N[C@H](C(=O)N1C[C@H](O)C[C@H]1C(=O)NCc1ccc(-c2scnc2C)cc1)C(C)(C)C [VH-032, reference compound]",abrogated 3b-induced CARM1 degradation
